Assay results from patent US11414429B2, “Compound or pharmaceutically acceptable salt thereof” (RIKEN, priority 2016, dated 2022).

Legend:
tankyrase 2 (TNKS 2) = biological target: T1, tankyrase 2 (TNKS 2) (Homo sapiens, UniProt Q9H2K2); test: Tankyrase inhibitory activity test (ELISA, self-polyADP ribosylation), tankyrase 2; type: biochemical; details: ELISA, self-polyADP ribosylation; class symbols; read-out: TNKS2 (inhibitory activity against tankyrase 2, IC50 value)
T1 construct: 613-1, 116aa; made in house; host or cells: cell-free protein synthesis system
Summary of the method: (§1)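 Flag-tagged TNKS1 (1,024-1,327aa, SAM+PARP) and TNKS2 (613-1,116aa, ANK5+SAM+PARP) were made cell-free and captured overnight at 4 °C on anti-FLAG M2 plates. After 10 min compound preincubation in Tris pH 8.0/MgCl2/DTT buffer, NAD (225 μM) plus biotin-NAD (25 μM) solution was added for 45 min at 30 °C. Auto-PARylation was read by streptavidin-HRP chemiluminescence, giving IC50 from residual activity.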

tankyrase 1 (TNKS 1) = biological target: T2, tankyrase 1 (TNKS 1) (Homo sapiens, UniProt O95271); test: Tankyrase inhibitory activity test (ELISA, self-polyADP ribosylation), tankyrase 1; type: biochemical; details: ELISA, self-polyADP ribosylation; class symbols; read-out: TNKS1 (inhibitory activity against tankyrase 1, IC50 value)
T2 construct: 1,024-1,327aa; made in house; host or cells: cell-free protein synthesis system
Summary of the method: as §1

[1] = test system: human colorectal cancer cell line, COLO-320DM; test: Cell proliferation inhibitory activity test (Celltiter-Glo Luminescent Cell Viability Assay); type: cell-based; details: COLO-320DM cells, 96 hours, class symbols, read-out: COLO-320 DM (cell proliferation inhibitory activity, GI50 value)
Summary of the method: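 Cells grown in RPMI-1640 with 10% FBS and 2 mM glutamine, seeded overnight, then exposed to compound (1% DMSO final) for 96 h at 37° C., 5% CO2. Viability read by ATP luminescence; GI50 is the concentration reducing cell growth to 50% of DMSO control.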

T1 sequence (Q9H2K2 613-1166): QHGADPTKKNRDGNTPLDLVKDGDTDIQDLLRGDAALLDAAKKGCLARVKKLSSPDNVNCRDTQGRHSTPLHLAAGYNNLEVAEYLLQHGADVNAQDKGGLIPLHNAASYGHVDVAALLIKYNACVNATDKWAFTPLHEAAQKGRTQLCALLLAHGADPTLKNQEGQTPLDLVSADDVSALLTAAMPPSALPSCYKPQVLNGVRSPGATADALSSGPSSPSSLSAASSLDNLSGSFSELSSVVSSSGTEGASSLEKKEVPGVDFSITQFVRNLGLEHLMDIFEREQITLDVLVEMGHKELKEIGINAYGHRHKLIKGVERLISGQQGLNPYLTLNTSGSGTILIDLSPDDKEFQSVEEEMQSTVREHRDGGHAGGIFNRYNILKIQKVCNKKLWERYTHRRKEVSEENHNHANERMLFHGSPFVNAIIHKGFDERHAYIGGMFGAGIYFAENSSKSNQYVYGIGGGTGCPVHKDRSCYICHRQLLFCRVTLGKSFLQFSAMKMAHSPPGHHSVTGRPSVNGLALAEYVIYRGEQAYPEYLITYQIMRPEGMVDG
T2 sequence (O95271 1024-1327): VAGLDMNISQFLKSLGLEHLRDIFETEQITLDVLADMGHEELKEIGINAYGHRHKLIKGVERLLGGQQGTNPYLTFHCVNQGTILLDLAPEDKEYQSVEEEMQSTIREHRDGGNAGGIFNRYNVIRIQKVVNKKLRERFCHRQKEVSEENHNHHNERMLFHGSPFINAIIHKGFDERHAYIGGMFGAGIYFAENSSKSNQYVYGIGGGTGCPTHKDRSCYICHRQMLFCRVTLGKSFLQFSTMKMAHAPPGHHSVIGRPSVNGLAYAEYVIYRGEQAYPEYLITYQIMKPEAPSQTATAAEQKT

Row | Compound | IC50 (tankyrase 2 (TNKS 2)) | IC50 (tankyrase 1 (TNKS 1)) | GI50 [1]
1 | CN1CCCc2c1nc(N1CCC3(CC1)C(=O)N(C)c1cc(OCc4nnn[nH]4)cc(F)c13)[nH]c2=O [Example 393, 6-[(1H-tetrazol-5-yl)methoxy]-4-fluoro-1-methyl-1′-(8-methyl-4-oxo-3,4,5,6,7,8-hexahydropyrido [2,3-d]pyrimidin-2-yl)spiro [indoline-3,4′-piperidin]-2(1H)-one] | < 20 nM | < 20 nM | 100 to 600 nM
2 | CN1CCCc2c1nc(N1CCC3(CC1)C(=O)N(C)c1cc(OCCN4CCCC4CO)cc(F)c13)[nH]c2=O (stereo not drawn) [Example 394, 4-fluoro-6-{2-[2-(hy-droxymethyl)pyrrolidin-1-yl]ethoxy}-1-methyl-1′-(8-methyl-4-oxo-3,4,5,6,7,8-hexahydropyrido [2,3-d]pyrimidin-2-yl)spiro [indoline-3,4′-piperidin]-2(1H)-one] | < 20 nM | < 20 nM | 600 to 1000 nM
3 | CN1CCCc2c(O)nc(N3CCC4(CC3)OC(=O)c3cc(OCCN5CCCC5)cc(F)c34)nc21 [Example 395, 4-fluoro-1′-(4-hydroxy-8-methyl-6,7-dihydro-5H-pyrido[2,3-d]pyrimidin-2-yl)-6-(2-pyrrolidin-1-ylethoxy)spiro[2-benzofuran-3,4′-piperidine]-1-one] | < 20 nM | < 20 nM | 600 to 1000 nM
4 | CN(C)CCOc1ccc(Cl)c2c1N(C)C(=O)C21CCN(c2nc3c(c(=O)[nH]2)CCCN3C)CC1 [Example 396, 4-chloro-7-[2-(dimethylamino)ethoxy]-1-methyl-1′-(8-methyl-4-oxo-3,4,5,6,7,8-hexahydro-pyrido [2,3-d]pyrimidin-2-yl)spiro [indoline-3,4′-piperidin]-2(1H)-one] | < 20 nM | < 20 nM | 100 to 600 nM
5 | COCCN1CCN(c2cc(F)c3c(c2)N(C)C(=O)C32CCN(c3nc4c(c(=O)[nH]3)CCCN4C)CC2)CC1 [Example 397, 4-fluoro-6-(4-(2-methoxy-ethyl)piperazin-1-yl)-1-methyl-1′-(8-methyl-4-oxo-3,4,5,6,7,8-hexahydro-pyrido [2,3-d]pyrimidin-2-yl) spiro[indoline-3,4′-piperidin]-2(1H)-one] | 20 to 200 nM | 20 to 200 nM | 100 to 600 nM
6 | CN1CCCc2c1nc(N1CCC3(CC1)C(=O)N(C)c1cc(N4CCN(C5COC5)CC4)cc(F)c13)[nH]c2=O [Example 398, 4-fluoro-1-methyl-1′-(8-methyl-4-oxo-3,4,5,6,7,8-hexahydro-pyrido [2,3-d]pyrimidin-2-yl)-6-(4-(oxetan-3-yl)piperazin-1-yl)spiro [indoline-3,4′-piperidin]-2(1H)-one] | < 20 nM | < 20 nM | 100 to 600 nM
7 | CN1CCCc2c1nc(N1CCC3(CC1)C(=O)N(CC(F)(F)F)c1cc(OCCO)cc(F)c13)[nH]c2=O [Example 399, 4-fluoro-6-(2-hydroxy-ethoxy)-1′-(8-methyl-4-oxo-3,4,5,6,7,8-hexahydro-pyrido [2,3-d]pyri-midin-2-yl)-1-(2,2,2-trifluoroethyl) spiro [indoline-3,4′-piperidin]-2(1H)-one] | < 20 nM | < 20 nM | 100 to 600 nM
8 | CN(C)CCOc1cc(F)c2c(c1)N(CC(F)(F)F)C(=O)C21CCN(c2nc3c(c(=O)[nH]2)CCCN3C)CC1 [Example 400, 6-[2-(di-methylamino)ethoxy]-4-fluoro-1′-(8-methyl-4-oxo-3,4,5,6,7,8-hexahydro-pyrido [2,3-d]pyrimidin-2-yl)-1-(2,2,2-trifluoroethyl) spiro[indoline-3,4′-piperidin]-2(1H)-one] | 20 to 200 nM | 20 to 200 nM | 100 to 600 nM
9 | CN(C)CCOc1ccc(F)c2c1N(C)C(=O)C21CCN(c2nc3c(c(=O)[nH]2)CCCN3C)CC1 [Example 401, 7-[2-(dimethylamino)ethoxy]-4-fluoro-1′-(4-hy-droxy-8-methyl-6,7-di-hydro-5H-pyrido[2,3-d]pyrimidin-2-yl)-1-methyl spiro[indole-3,4′-piperidin]-2-one] | < 20 nM | < 20 nM | 100 to 600 nM
10 | CN1CCN(c2cc(F)c3c(c2)N(CC#N)C(=O)C32CCN(c3nc4c(c(=O)[nH]3)CCCN4C)CC2)CC1 [Example 402, [4-fluoro-1′-(8-methyl-4-oxo-3,4,5,6,7,8-hexahydropyrido [2,3-d]py-rimidin-2-yl)-6-(4-methyl-piperazin-1-yl)-2-oxo-spiro[indoline-3,4′-piperidin]-1(2H)-yl] acetonitrile] | < 20 nM | 20 to 200 nM | 100 to 600 nM
11 | CC(=O)N1CCN(c2cc(F)c3c(c2)N(C)C(=O)C32CCN(c3nc4c(c(=O)[nH]3)CCCN4C)CC2)CC1 [Example 403, 6-(4-acetylpiperazin-1-yl)-4-fluoro-1-methyl-1′-(8-methyl-4-oxo-3,4,5,6,7,8-hexahydropy-rido[2,3-d]pyrimidin-2-yl)-spiro [indoline-3,4′-piperidin]-2(1H)-one] | < 20 nM | < 20 nM | 100 to 600 nM
12 | CN1CCCc2c1nc(N1CCC3(CC1)C(=O)N(CC(F)(F)F)c1cc(OCCN4CCCC4)cc(F)c13)[nH]c2=O [Example 404, 4-fluoro-1′-(8-methyl-4-oxo-3,4,5,6,7,8-hexa hydropyrido [2,3-d]pyrimidin-2-yl)-6-[2-(pyrroli-din-1-yl)ethoxy]-1-(2,2,2-trifluoroethyl) spiro [indoline-3,4′-piperidin]-2(1H)-one] | 20 to 200 nM | 20 to 200 nM | 600 to 1000 nM
13 | COCCN1C(=O)C2(CCN(c3nc4c(c(=O)[nH]3)CCCN4C)CC2)c2c(F)cc(OCCN(C)C)cc21 [Example 405] | < 20 nM | < 20 nM | 600 to 1000 nM
14 | CN1CCN(CCOc2cc(F)c3c(c2)N(CC(F)(F)F)C(=O)C32CCN(c3nc4c(c(=O)[nH]3)CCCN4C)CC2)CC1 [Example 406, 4-fluoro-1′-(8-methyl-4-oxo-3,4,5,6,7,8-hex-ahydropyrido[2,3-d]pyrimidin-2-yl)-6-[2-(4-methylpiperazin-1-yl)ethoxy]-1-(2,2,2-trifluoroethyl)spiro [indoline-3,4′-piperidin]-2(1H)-one] | 20 to 200 nM | 20 to 200 nM | < 100 nM
15 | COCCN1C(=O)C2(CCN(c3nc4c(c(=O)[nH]3)CCCN4C)CC2)c2c(F)cc(N3CCN(C)CC3)cc21 [Example 407, 4-fluoro-1-(2-methoxy-ethyl)-1′-(8-methyl-4-oxo-3,4,5,6,7,8-hexahydropyrido[2,3-d]pyrimidin-2-yl)-6-(4-methylpiperazin-1-yl) spiro[indoline-3,4′-piperidin]-2(1H)-one] | < 20 nM | 20 to 200 nM | 100 to 600 nM
16 | COCCN1C(=O)C2(CCN(c3nc4c(c(=O)[nH]3)CCCN4C)CC2)c2c(F)cc(OCC(=O)O)cc21 [Example 409] | < 20 nM | < 20 nM | 600 to 1000 nM
17 | COCCN1C(=O)C2(CCN(c3nc4c(c(=O)[nH]3)CCCN4C)CC2)c2c(F)cc(OCCO)cc21 [Example 410, 4-fluoro-6-(2-hydroxy-ethoxy)-1-(2-methoxyethyl)-1′-(8-methyl-4-oxo-3,4,5,6,7,8-hexahydro-pyrido[2,3-d]pyrimi-din-2-yl)spiro[indoline-3,4′-piperidin]-2(1H)-one] | < 20 nM | < 20 nM | 100 to 600 nM
